Tests used:
E. coli [1] = assay: Radial diffusion assay; format: cell-based; details: qualitative comparison with wild type BF2
E. coli [2] = assay: Membrane permeability by propidium iodide; format: cell-based; details: qualitative comparison with wild type BF2; PI uptake in E. coli

Row | Sequence | ANTIMICROBIAL ACTIVITY compared to wild type (E. coli [1]) | MEMBRANE PERMEABILIZATION compared to wild type (E. coli [2])
1 | TRSSRAGLQFAPGRVHRLLRK [P11A/V12P] | LOWER | SIMILAR
2 | TRSSRAGLQFAVGRPHRLLRK [P11A/V15P] | LOWER | SIMILAR
3 | TRSSRAPLQFAVGRVHRLLRK [P11A/G7P] | SIMILAR | HIGHER
4 | TRSSRAGLQFAVGRVHRLLRK [P11A] | LOWER | HIGHER
